The term Ki denotes a measure of affinity in units of concentration, obtained from inhibition or displacement.

The results in this text go back to patent publication US9346815B2, “5-chloro-2-difluoromethoxyphenyl pyrazolopyrimidine compounds, compositions and methods of use thereof” (Genentech, Inc., priority 2014, dated 2016).

Data set [1] relates to JAK1-dependent STAT6 phosphorylation downstream of IL-13 stimulation in TF-1 human erythroleukemia cells. Briefly: JAK1 pathway assay in TF-1 cells (IL-13-pSTAT6, MSD). Format: cell-based. Particulars: Homo sapiens, TF-1, TF-1 cells, read-out: IL13-pSTAT6 EC50_TF-1. An outline of the steps:
(§1)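 BEAS-2B: complete growth medium, compound 1 hr at 37° C. TF-1: GM-CSF-starved overnight, serum-free OptiMEM, compound 30 min.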

Data set [2] addresses isolated recombinant JAK2 kinase domain (Homo sapiens (Human), UniProt O60674). Briefly: JAK2 enzyme assay (Caliper LabChip, peptide phosphorylation). Format: biochemical. The conditions noted are these: 25 μM ATP.
Data set [3] in a line: Clearance assay: mouse intravenous (IV) clearance. Format: in vivo. Particulars: female BALB/c mice; for IV Mouse CL, % of liver blood flow: clearance as % of mouse liver blood flow; for clearance: mouse, read-out: IV Mouse CL. The text has this: In certain instances high systemic clearance of a drug substance may be of benefit. For example, in the treatment of pulmonary diseases it may be beneficial to have high drug concentrations in the lung, with lower concentrations in the bloodstream or peripheral organs. In such cases, it may be advantageous to administer a drug substance with high systemic clearance via the inhaled delivery route. This approach may maximize pharmacologic activity of the drug substance in the lung while minimizing the possibility of on-target toxicity elsewhere in the body. The functional groups appended to the 5-chloro-2-difluoromethoxyphenyl pyrazolopyrimidine scaffold affect systemic clearance.
Female BALB/c mice were obtained from Charles River Labs (Hollister, Calif. USA). Twelve animals were given a single IV dose of 1 mg/kg of compounds via the tail vein. A representative dose solution was prepared as follows: the compound was dissolved in a mixture of 5% dimethylsulfoxide (DMSO), 35% polyethylene glycol (PEG 400), and 60% water (v/v/v), respectively, and administered at a dosing volume of 5 mL/kg. Mice weighed approximately 20-25 g at the start of the study. After intravenous administration of compounds, each animal was bled twice via retro-orbital and cardiac puncture. PK time points were collected at 2 min, 5 min, 15 min, 30 min, 1 hr, 2 hr, 4 hr, and 8 hr post-dose. Plasma samples were stored at approximately −80° C. until thawed for LC-MS/MS analysis. PK data analysis was performed on mean plasma concentration-time data and PK parameters were determined by non compartmental methods using WinNonlin® Enterprise, version 5.2.1 (Pharsight Corporation; Mountain View, Calif.).

Data set [4] deals with isolated recombinant JAK1 kinase domain (Homo sapiens (Human), UniProt P23458). Briefly: JAK1 enzyme assay (Caliper LabChip, peptide phosphorylation). Particulars: isolated recombinant JAK1 kinase domain, 25 μM ATP. The data set is classed as biochemical.
Sequence of isolated recombinant JAK1 kinase domain (P23458 875-1153): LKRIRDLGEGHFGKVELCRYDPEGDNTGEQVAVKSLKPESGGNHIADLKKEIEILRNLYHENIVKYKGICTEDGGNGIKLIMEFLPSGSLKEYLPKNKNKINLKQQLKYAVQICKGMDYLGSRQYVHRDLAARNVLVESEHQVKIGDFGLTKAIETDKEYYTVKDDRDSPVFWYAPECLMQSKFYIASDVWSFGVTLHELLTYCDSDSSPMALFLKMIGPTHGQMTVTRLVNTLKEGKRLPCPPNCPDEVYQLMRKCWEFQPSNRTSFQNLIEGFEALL
The test system of data set [5] is JAK1-dependent STAT6 phosphorylation downstream of IL-13 stimulation in BEAS-2B human bronchial epithelial cells. Briefly: JAK1 pathway assay in BEAS-2B cells (IL-13-pSTAT6, MSD). Format: cell-based. The conditions noted are these: read-out: IL13-pSTAT6 EC50 (uM)_BEAS-2B. An outline of the steps:
as §1

Where [6] appears, read: plasma, single IV dose of 1 mg/kg via the tail vein.

Sequence of isolated recombinant JAK2 kinase domain (O60674 849-1124): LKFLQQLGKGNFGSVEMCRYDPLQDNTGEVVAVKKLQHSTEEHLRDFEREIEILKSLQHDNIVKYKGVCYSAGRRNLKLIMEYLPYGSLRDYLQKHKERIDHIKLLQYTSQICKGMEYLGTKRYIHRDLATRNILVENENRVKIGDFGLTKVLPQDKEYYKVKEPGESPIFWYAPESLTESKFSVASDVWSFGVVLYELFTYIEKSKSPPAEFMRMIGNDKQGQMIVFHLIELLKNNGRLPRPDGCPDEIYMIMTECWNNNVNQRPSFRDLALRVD

Regarding `O=C(Nc1cn(CC(=O)N2C[C@H]3CN(CC(F)(F)F)C[C@H]3C2)nc1-c1cc(Cl)ccc1OC(F)F)c1cnn2cccnc12` [Example 59, N-[1-[2-[(3aR,6aS)-2-(2,2,2-trifluoroethyl)-1,3,3a,4,6,6a-hexahydropyrrolo[3,4-c]pyrrol-5-yl]-2-oxo-ethyl]-3-[5-chloro-2-(difluoromethoxy)phenyl]pyrazol-4-yl]pyrazolo[1,5-a]pyrimidine-3-carboxamide], the EC50 in data set [1] was 3.7 nM. The Ki in data set [2] was determined as 0.8 nM; in data set [4], 0.5 nM. Also, in data set [3] (single IV dose of 1 mg/kg), the “IV Mouse CL, % of liver blood flow” value was 43%. In addition, the clearance in data set [3] (setting [6]) turned out to be 2.34 L/h/kg.
In the same order, the values of `CN(CC(F)(F)F)C1CCN(c2nc(-c3cc(Cl)ccc3OC(F)F)c(NC(=O)c3cnn4cccnc34)s2)CC1` [Example 198, N-[4-[5-chloro-2-(difluoromethoxy)phenyl]-2-[4-[methyl(2,2,2-trifluoroethyl)amino]-1-piperidyl]thiazol-5-yl]pyrazolo[1,5-a]pyrimidine-3-carboxamide] are 29.1 nM, 2.17 nM, 2.72 nM, more than 100% and 19.6 L/h/kg.
For the molecule `O=C(Nc1cn(CC(=O)N2CCC(O)CC2)nc1-c1cc(Cl)ccc1OC(F)F)c1cnn2cccnc12` [Example 278, N-[3-[5-chloro-2-(difluoromethoxy)phenyl]-1-[2-(4-hydroxy-1-piperidyl)-2-oxo-ethyl]pyrazol-4-yl]pyrazolo[1,5-a]pyrimidine-3-carboxamide], the inhibition constant Ki in data set [2] came to 0.63 nM; in data set [4] it was 0.24 nM. The “IV Mouse CL, % of liver blood flow” value in data set [3] (single IV dose of 1 mg/kg) was more than 100%. The clearance in data set [3] (setting [6]) was 7.98 L/h/kg. Further, in data set [5], the EC50 amounted to 0.005 µM.
In the case of `CCN(Cc1ccnc(C)c1)C(=O)Cn1cc(NC(=O)c2cnn3cccnc23)c(-c2cc(Cl)ccc2OC(F)F)n1` [Example 299, N-[3-[5-chloro-2-(difluoromethoxy)phenyl]-1-[2-[ethyl-[(2-methyl-4-pyridyl)methyl]amino]-2-oxo-ethyl]pyrazol-4-yl]pyrazolo[1,5-a]pyrimidine-3-carboxamide], the EC50 in data set [1] was determined as 4.1 nM; in data set [5], 0.0104 µM. Moreover, the Ki in data set [2] is 0.39 nM; in data set [4] it was 0.38 nM.
`CCN(Cc1ccnc(Cl)c1)C(=O)Cn1cc(NC(=O)c2cnn3cccnc23)c(-c2cc(Cl)ccc2OC(F)F)n1` [Example 300, N-[3-[5-chloro-2-(difluoromethoxy)phenyl]-1-[2-[(2-chloro-4-pyridyl)methyl-ethyl-amino]-2-oxo-ethyl]pyrazol-4-yl]pyrazolo[1,5-a]pyrimidine-3-carboxamide]: the EC50 stood at 4 nM in data set [1] and 0.0142 µM in data set [5]. The Ki amounted to 0.18 nM in data set [2] and 0.28 nM in data set [4].
For `CCN(Cc1cccnc1)C(=O)Cn1cc(NC(=O)c2cnn3cccnc23)c(-c2cc(Cl)ccc2OC(F)F)n1` [Example 301, N-[3-[5-chloro-2-(difluoromethoxy)phenyl]-1-[2-[ethyl(3-pyridylmethyl)amino]-2-oxo-ethyl]pyrazol-4-yl]pyrazolo[1,5-a]pyrimidine-3-carboxamide], in that order: 3.4 nM, 0.0095 µM, 0.36 nM and 0.33 nM.
Consider `N=C(N)CCn1cc(NC(=O)c2cnn3cccnc23)c(-c2cc(Cl)ccc2OC(F)F)n1` [Example 304, N-[1-(2-carbamimidoylethyl)-3-[5-chloro-2-(difluoromethoxy)phenyl]-1H-pyrazol-4-yl]pyrazolo[1,5-a]pyrimidine-3-carboxamide], for which the EC50 in data set [1] was determined as 5.9 nM; in data set [5] it was 0.0469 µM. The Ki in data set [2] amounted to 0.39 nM; in data set [4], 0.78 nM.
With `N=C(N)CCCn1cc(NC(=O)c2cnn3cccnc23)c(-c2cc(Cl)ccc2OC(F)F)n1` [Example 305, N-[1-(4-amino-4-imino-butyl)-3-[5-chloro-2-(difluoromethoxy)phenyl]pyrazol-4-yl]pyrazolo[1,5-a]pyrimidine-3-carboxamide], the EC50 in data set [1] stood at 10.9 nM; in data set [5], 0.0426 µM. For the same molecule, the results for the Ki in data set [2] and in data set [4] were 0.32 nM and 0.61 nM, respectively.
On to `CCOC(=O)CNCCn1cc(NC(=O)c2cnn3cccnc23)c(-c2cc(Cl)ccc2OC(F)F)n1` [Example 306, Ethyl 2-[(2-[3-[5-chloro-2-(difluoromethoxy)phenyl]-4-[pyrazolo[1,5-a]pyrimidine-3-amido]-1H-pyrazol-1-yl]ethyl)amino]acetate], for which the figures for the EC50 in data set [1] and in data set [5] were 6.2 nM and 0.0659 µM, respectively. For the same molecule, the Ki is 0.54 nM in data set [2] and 1.15 nM in data set [4].
For `O=C(CNCCn1cc(NC(=O)c2cnn3cccnc23)c(-c2cc(Cl)ccc2OC(F)F)n1)OC1CCCC1` [Example 307, cyclopentyl 2-[2-[3-[5-chloro-2-(difluoromethoxy)phenyl]-4-(pyrazolo[1,5-a]pyrimidine-3-carbonylamino)pyrazol-1-yl]ethylamino]acetate], in that order: 6.1 nM, 0.025 µM, 0.59 nM and 1.45 nM.
`CCOC(=O)[C@@H](N)CCn1cc(NC(=O)c2cnn3cccnc23)c(-c2cc(Cl)ccc2OC(F)F)n1` [Example 309, ethyl (2S)-2-amino-4-[3-[5-chloro-2-(difluoromethoxy)phenyl]-4-(pyrazolo[1,5-a]pyrimidine-3-carbonylamino)pyrazol-1-yl]butanoate]: the values for the EC50 in data set [1] and in data set [5] were 16.3 nM and 0.049 µM, respectively. Further, the figures for the inhibition constant (Ki) in data set [2] and in data set [4] were 0.47 nM and 1.34 nM, respectively.
`O=C(Nc1cn(CCNCc2ccccc2)nc1-c1cc(Cl)ccc1OC(F)F)c1cnn2cccnc12` [Example 313, N-[1-[2-(benzylamino)ethyl]-3-[5-chloro-2-(difluoromethoxy)phenyl]-1H-pyrazol-4-yl]pyrazolo[1,5-a]pyrimidine-3-carboxamide]: the Ki in data set [2] and in data set [4] was 0.21 nM throughout. Moreover, the “IV Mouse CL, % of liver blood flow” value in data set [3] (single IV dose of 1 mg/kg) is recorded as 57%. Moreover, the clearance in data set [3] (setting [6]) is 3.06 L/h/kg. Besides, the EC50 in data set [5] amounted to 0.0218 µM.
As to `CN(C)CCOC(=O)C1CCN(C(=O)Cn2cc(NC(=O)c3cnn4cccnc34)c(-c3cc(Cl)ccc3OC(F)F)n2)CC1` [Example 338, 2-(dimethylamino)ethyl 1-(2-[3-[5-chloro-2-(difluoromethoxy)phenyl]-4-[pyrazolo[1,5-a]pyrimidine-3-amido]-1H-pyrazol-1-yl]acetyl)piperidine-4-carboxylate], the Ki in data set [2] is 1.16 nM; in data set [4] it was 0.36 nM. For the same molecule, the “IV Mouse CL, % of liver blood flow” value in data set [3] (single IV dose of 1 mg/kg) is on record as more than 100%. Also, in data set [3] (setting [6]), the clearance is more than 12 L/h/kg. The EC50 in data set [5] is 0.0177 µM.
As to `O=C(Nc1cn(CC(=O)N2CCC(CN3CCOCC3)CC2)nc1-c1cc(Cl)ccc1OC(F)F)c1cnn2cccnc12` [Example 348, N-[3-[5-chloro-2-(difluoromethoxy)phenyl]-1-[2-[4-(morpholin-4-ylmethyl)piperidin-1-yl]-2-oxoethyl]-1H-pyrazol-4-yl]pyrazolo[1,5-a]pyrimidine-3-carboxamide], the Ki turned out to be 1.02 nM in data set [2] and 0.4 nM in data set [4]. The “IV Mouse CL, % of liver blood flow” value in data set [3] (single IV dose of 1 mg/kg) is recorded as more than 100%. The clearance in data set [3] (setting [6]) stood at 8.58 L/h/kg. The EC50 in data set [5] came to 0.012 µM.
Consider `CCOC(=O)CN1CCN(C(=O)Cn2cc(NC(=O)c3cnn4cccnc34)c(-c3cc(Cl)ccc3OC(F)F)n2)CC1` [Example 397, ethyl 2-[4-(2-[3-[5-chloro-2-(difluoromethoxy)phenyl]-4-[pyrazolo[1,5-a]pyrimidine-3-amido]-1H-pyrazol-1-yl]acetyl)piperazin-1-yl]acetate], for which, in data set [2], the inhibition constant Ki is 0.77 nM. In addition, in data set [3] (single IV dose of 1 mg/kg), the “IV Mouse CL, % of liver blood flow” value is more than 100%. In data set [3] (setting [6]), the clearance came to 8.46 L/h/kg. In addition, the EC50 in data set [5] came to 0.027 µM.
`CC(C)(O)Cn1cc(NC(=O)c2cnn3cccnc23)c(-c2cc(Cl)ccc2OC(F)F)n1` [i]: the “mouse IV clearance as % of mouse liver blood flow” value in data set [3] (single IV dose of 1 mg/kg) is on record as 6%. Moreover, the “mouse intravenous (IV) clearance value” in data set [3] (single IV dose of 1 mg/kg via the tail vein, plasma) was determined as 0.318 L/h/kg.
